Laboratory results reported in patent EP1192860B1, “UVA-tracer containing disinfectant and method of determining the degree of dilution of disinfectants using UVA-tracers” (Air Liquide Santé (International), priority 2000, dated 2002).
Entries after “also recorded” stand apart in the source; their conditions may differ.

Tests used:
Assay type in all cases: physicochemical
[1] = Solubility of selected UV-A-tracers in selected concentrates; settings: for Solubilities of selected UV-A-tracers in concentrates and optically visible changes compared with the original concentrate: 0.2 g UV-A-tracer in 100 g concentrate, stirred 3 hours; for Solubility in the concentrates: all five concentrates (preparations 1 to 5)
Description: Solubilities of selected UV-A-tracers in concentrates containing various active ingredient combinations (preparations 1 to 5) and optically visible changes compared with the original concentrate, "+" UV-A-tracer soluble in 100 g of preparation to at least 0.2 g, "y" the originally colourless concentrate turns yellowish as a result of the incorporation of the UV-A-tracer.

[2] = Stability investigations of UV-A-tracer-containing concentrates (optically visible changes on storage); settings: clear glass bottles, room temperature, window-sill vs dark, 3 months
Description: Since the UV-A-tracers are to be used for determining the active ingredient concentrations of disinfectant solutions, the UV-A-tracer-containing concentrates must be sufficiently stable throughout the entire storage life of the commercially available disinfectant concentrates (approximately 3 years). In order to investigate the stability of the UV-A-tracers, preparations 1 to 5 to which UV-A-tracers have been added were stored in clear glass bottles at room temperature firstly on a window-sill and secondly as a reference in the dark. Over a period of 3 months, the optically visible changes of the UV-A-tracer-containing preparations stored under varying conditions were observed and, at regular time intervals, 1% dilutions of these UV-A-tracer-containing preparations in water were investigated spectroscopically.

[3] = Absorption spectrophotometric stability investigations of the incorporated UV-A-tracers
Description: The long-term stability of combinations of concentrate and UV-A-tracers in the dark and under the effect of light was investigated by reference to UV spectra. The combinations below were used (Table 7): Table 7
Following storage at room temperature for 4, 8 or 12 weeks in the dark or in daylight, 1% strength dilutions of each of the preparations in water were prepared.

[4] = Prep.4 (Combinations of aldehydes)
[5] = Prep.5 (Quat + phenoxypropanols)
[6] = amine-containing preparations (1 and 2)

Row | SMILES | Solubilities of selected UV-A-tracers in concentrates and optically visible changes compared with the original concentrate ([1]; Prep.1 (Quat + alkylamine)) | Solubilities of selected UV-A-tracers in concentrates and optically visible changes compared with the original concentrate ([1]; Prep.2 (Quat + GuAc)) | Solubilities of selected UV-A-tracers in concentrates and optically visible changes compared with the original concentrate ([1]; Prep.3 (Quat + org. acid)) | Solubilities of selected UV-A-tracers in concentrates and optically visible changes compared with the original concentrate [1, 4] | Solubilities of selected UV-A-tracers in concentrates and optically visible changes compared with the original concentrate [1, 5] | Colour change on incorporation of the UV-A-tracer [1, 6] | Solubility in the concentrates [1] | Colour change on incorporation of the UV-A-tracer ([1]; all preparations) | Changes within the observation period ([2]; in Preparation 1) | Changes within the observation period ([2]; in Preparation 2) | Changes within the observation period ([2]; in Preparation 3) | Changes within the observation period ([2]; in Preparation 4) | Changes within the observation period ([2]; in Preparation 5) | Divergence of the absorptions between sample stored in the dark and sample exposed to daylight ([3]; in preparation 5, after 12 weeks, 1% strength dilutions in water) | Odour of the sample ([3]; in preparation 5, exposed to daylight, after 12 weeks) | Changes of the sample ([3]; in preparation 5, stored in the dark) | Decomposition of the UV-A-tracer ([3]; preparations 3, 4 and 5, storage in the dark and in daylight)
1 | COc1cc(O)c(C(=O)c2ccccc2)cc1S(=O)(=O)O [Benzophenone-4, 2-Hydroxy-4-methoxybenzophenone-5-sulphonic acid] | +y | +y | + (UV-A-tracer soluble in 100 g of preparation to at least 0.2 g) | + (UV-A-tracer soluble in 100 g of preparation to at least 0.2 g) | + (UV-A-tracer soluble in 100 g of preparation to at least 0.2 g) | intensive yellow coloration | – | – | – | – | – | – | – | – | – | – | –
2 | CC1CCC(C(C)C)C(OC(=O)c2ccccc2N)C1 (stereo not drawn) [Menthyl anthranilate, Menthyl o-aminobenzoate] | + (UV-A-tracer soluble in 100 g of preparation to at least 0.2 g) | + (UV-A-tracer soluble in 100 g of preparation to at least 0.2 g) | + (UV-A-tracer soluble in 100 g of preparation to at least 0.2 g) | + (UV-A-tracer soluble in 100 g of preparation to at least 0.2 g) | + (UV-A-tracer soluble in 100 g of preparation to at least 0.2 g) | – | dissolves in all preparations | without visible colour changes | slight yellowish tinge; also recorded: slight yellow coloration | slight yellowish tinge; also recorded: slight yellow coloration | intensive yellow coloration | pale yellow-green colour | from green to yellow | significant divergence | intensive unpleasant odour | does not display any perceptible changes | –
3 | COc1ccc(C(=O)c2ccccc2)c(O)c1 [Benzophenone-3, 2-Hydroxy-4-methoxybenzophenone] | +y | +y | + (UV-A-tracer soluble in 100 g of preparation to at least 0.2 g) | + (UV-A-tracer soluble in 100 g of preparation to at least 0.2 g) | + (UV-A-tracer soluble in 100 g of preparation to at least 0.2 g) | intensive yellow coloration | dissolves without problems | – | – | – | does not display changes of any kind and none | – | – | – | – | – | In none of the three disinfectants was decomposition of benzophenone-3 observed
4 | COc1ccc(C(=O)c2ccc(OC)cc2O)c(O)c1 [Benzophenone-6, 2,2'-Dihydroxy-4,4'-dimethoxybenzophenone] | +y | +y | +y | + (UV-A-tracer soluble in 100 g of preparation to at least 0.2 g) | + (UV-A-tracer soluble in 100 g of preparation to at least 0.2 g) | intensive yellow coloration | – | – | – | – | – | – | – | – | – | – | –
5 | COc1cc(O)c(C(=O)c2cc(S(=O)(=O)[O-])c(OC)cc2O)cc1S(=O)(=O)[O-].[Na+].[Na+] [Benzophenone-9, 2,2'-dihydroxy-4,4'-dimethoxybenzophenone-5,5'-disodium sulphonate] | +y | +y | +y | + (UV-A-tracer soluble in 100 g of preparation to at least 0.2 g) | + (UV-A-tracer soluble in 100 g of preparation to at least 0.2 g) | intensive yellow coloration | – | – | – | – | – | – | – | – | – | – | –
